Literature values as cited in patent US7060710B2, “Isoxazole pyrazoloindane derivatives as cognition enhancing GABAA α5 subtype ligands” (Merck Sharp & Dohme Ltd., priority 2001, dated 2006).

Columns and labels:
[1] = reported by McNamara and Skelton
[2] = background statement

In the case of `COC(=O)c1cc2c(cn1)[nH]c1ccccc12` [β-CCM], the “spatial learning in the Morris watermaze” value [1] is given as “enhanced spatial learning” and the proconvulsant activity [2] is given as “proconvulsant”.
